Usually IC50 stands for the midpoint of a concentration-inhibition curve.

These results are taken from US20240025919A1, “AZA-TETRACYCLIC OXAZEPINE COMPOUNDS AND USES THEREOF” (Genentech, Inc., priority 2022, published 2024).

In assay [1] the target is KRAS G12D (Homo sapiens (Human), UniProt P01116, G12D). Put plainly: KRAS G12D LoEnz Biochemical Assay, BODIPY-GDP Exchange TR-FRET (SOS1-mediated nucleotide exchange). As to conditions: read-out: KRas (G12D) GDP HTRF IC50. On the procedure: Example 500: KRAS G12D LoEnz Biochemical Assay, BODIPY-GDP Exchange TR-FRET. Biochemical compound potencies are assessed by evaluating inhibition of SOS1I-mediated nucleotide exchange in KRAS G121D. In this assay, the SOS1-promoted exchange of fluorescently-labeled GDP (BOPIDY-GDP) is monitored by time-resolved fluorescence resonance energy transfer (TR-FRET). Compounds solubilized in DMS0 are dispensed as concentration series into 384-well white assay plates. A preformed complex of biotin-tagged recombinant human KRAS (0.06 nM mutant G1 2D) and 0.06 nM terbium-labeled streptavidin (CisBIO) prepared in 10 uL/well assay buffer (20 mM HEPES, pH 7.5, 50 mM NaCl, 10 mMMMgCl2, 0.0100 Tween-20 and 1 mM dithiothreitol) is added and allowed to incubate for 10-minutes at room temperature. The reaction is initiated with the addition of 5 uL 300 nM recombinant human SOS1 and 300 nM BODIPY-GDP in assay buffer. After a 120-minute incubation, the fluorescence is measured with excitation at 337 nm and emission at 490 and 520 nm. The TR-FRET ratio is determined as the fluorescence at 520 nm divided by the fluorescence at 490 nm multiplied by 10,000. The results are normalized to percent inhibition based on control samples: DMSO (0% inhibition) and control compound at a concentration that inhibits completely (100% inhibition). The normalized TR-FRET results are plotted against compound concentration, and the data are fit to a 4-parameter Hill equation to determine the IC50 values.
KRAS G12D, sequence (P01116-2 other isoform, or with tags, fused parts or gaps G12D): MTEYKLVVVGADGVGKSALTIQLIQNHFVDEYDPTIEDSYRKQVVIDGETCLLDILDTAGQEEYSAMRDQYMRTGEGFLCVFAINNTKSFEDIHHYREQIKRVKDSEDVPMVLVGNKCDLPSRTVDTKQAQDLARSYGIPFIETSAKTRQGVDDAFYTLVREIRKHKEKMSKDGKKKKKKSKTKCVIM
A general note: In TR-FRET formats the signal depends on donor and acceptor labels being close together.

Assay [2] deals with KRAS WT (Homo sapiens (Human), UniProt P01116). Description: KRAS WT Biochemical Assay, BODIPY-GDP Exchange TR-FRET (Example 501; 3 nM KRAS WT, 3 nM SOS1, 60-minute incubation). Here is the method: Example 501: KRAS WT Biochemical Assay, BODIPY-GDP Exchange TR-FRET. Biochemical compound potencies are assessed by evaluating inhibition of SOS1-mediated nucleotide exchange in KRAS WT. In this assay, the SOS1-promoted exchange of fluorescently-labeled GDP (BOPIDY-GDP) is monitored by time-resolved fluorescence resonance energy transfer (TR-FRET). Compounds solubilized in DMSO are dispensed as concentration series into 384-well white assay plates, and 5 uL assay buffer (20 mM HEPES, pH 7.5, 50 mM NaCl, 10 mM MgCl2, 0.01% Tween-20 and 1 mM dithiothreitol) is added just prior to the start of the assay. A preformed complex of 3 nM biotin-tagged recombinant human KRAS WT and 0.3 nM terbium-labeled streptavidin (CisBIO) prepared in 5 uL/well assay buffer is added and allowed to incubate for 10-minutes at room temperature. The reaction is initiated with the addition of 5 uL 3 nM recombinant human SOS1 and 300 nM BODIPY-GDP in assay buffer. After a 60-minute incubation, the fluorescence is measured with excitation at 337 nm and emission at 490 and 520 nm. The TR-FRET ratio is determined as the fluorescence at 520 nm divided by the fluorescence at 490 nm multiplied by 10,000. The results are normalized to percent inhibition based on control samples: DMSO (0% inhibition) and control compound at a concentration that inhibits completely (100% inhibition). The normalized TR-FRET results are plotted against compound concentration, and the data are fit to a 4-parameter Hill equation to determine the IC50 values.
KRAS WT, sequence (P01116-2 other isoform, or with tags, fused parts or gaps): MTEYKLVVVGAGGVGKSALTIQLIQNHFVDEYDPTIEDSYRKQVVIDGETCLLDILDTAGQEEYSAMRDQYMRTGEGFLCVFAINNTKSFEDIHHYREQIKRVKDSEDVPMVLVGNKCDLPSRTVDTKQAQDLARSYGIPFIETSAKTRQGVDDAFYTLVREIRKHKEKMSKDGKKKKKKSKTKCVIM

Setting [3] is: read-out: KRas(wt) GDP HTRF IC50.

Where two headings read alike, the source gives them in different places.

For `C#Cc1cccc2cc(O)cc(-c3nc4c5c(nc(OC[C@@]67CCCN6C[C@H](F)C7)nc5c3F)N3C[C@H]5CC[C@H](CN5CC5COC5)[C@H]3CO4)c12` [Compound 51, 5-ethynyl-4-((5aS,6R,9R)-1-fluoro-12-(((2R,7aS)-2-fluorotetrahydro-1H-pyrrolizin-7a(5H)-yl)methoxy)-14-(oxetan-3-ylmethyl)-5a,6,7,8,9,10-hexahydro-5H-4-oxa-3,10a,11,13,14-pentaaza-6,9-ethanonaphtho[1,8-ab]heptalen-2-yl)naphthalen-2-ol], the IC50 in assay [1] was 0.3 nM; in assay [2] (setting [3]), 5.6 nM.

On to `Oc1cc(-c2nc3c4c(nc(OC[C@@]56CCCN5C[C@H](F)C6)nc4c2F)N2C[C@H]4CC[C@H](N4)[C@H]2CO3)c2c(F)cccc2c1` [Compound 1, 5-Fluoro-4-((5aS,6S,9R)-1-fluoro-12-(((2R,7aS)-2-fluorotetrahydro-1H-pyrrolizin-7a(5H)-yl)methoxy)-5a,6,7,8,9,10-hexahydro-5H-4-oxa-3,10a,11,13,14-pentaaza-6,9-methanonaphtho[1,8-ab]heptalen-2-yl)naphthalen-2-ol], for which the IC50 was found to be 0.12 nM in assay [1] and 8.12 nM in assay [2] (setting [3]).

On to `Cc1nc(N)cc(-c2nc3c4c(nc(OC[C@@]56CCCN5C[C@H](F)C6)nc4c2F)N2C[C@H]4CC[C@H](N4)[C@H]2[C@H](C)O3)c1CC(F)F` [Compound 189, 5-(2,2-Difluoroethyl)-4-((5S,5aS,6S,9R)-1-fluoro-12-(((2R,7aS)-2-fluorotetrahydro-1H-pyrrolizin-7a(5H)-yl)methoxy)-5-methyl-5a,6,7,8,9,10-hexahydro-5H-4-oxa-3,10a,11,13,14-pentaaza-6,9-methanonaphtho[1,8-ab]heptalene-2-yl)-6-methylpyridin-2-amine], for which the figures for the IC50 in assay [1] and in assay [2] (read-out: KRas HTRF IC50) were 2.31 nM and 252 nM, respectively.

`CCc1cccc2cc(O)cc(-c3nc4c5c(nc(OC[C@@]67CCCN6C[C@H](F)C7)nc5c3F)N3C[C@H]5CC[C@H](N5)[C@H]3CO4)c12` [Compound 5, 5-ethyl-4-((5aS,6S,9R)-1-fluoro-12-(((2R,7aS)-2-fluorotetrahydro-1H-pyrrolizin-7a(5H)-yl)methoxy)-5a,6,7,8,9,10-hexahydro-5H-4-oxa-3,10a,11,13,14-pentaaza-6,9-methanonaphtho[1,8-ab]heptalen-2-yl)naphthalen-2-ol]: the IC50 came to 0.06 nM in assay [1] and 2.12 nM in assay [2] (setting [3]).

In the case of `Cc1nc(N)cc(-c2nc3c4c(nc(OC[C@@]56CCCN5C[C@H](F)C6)nc4c2F)N2C[C@H]4CC[C@H](N4)[C@H]2[C@H](C)O3)c1OC(F)F` [Compound 188, 5-(Difluoromethoxy)-4-((5S,5aS,6S,9R)-1-fluoro-12-(((2R,7aS)-2-fluorotetrahydro-1H-pyrrolizin-7a(5H)-yl)methoxy)-5-methyl-5a,6,7,8,9,10-hexahydro-5H-4-oxa-3,10a,11,13,14-pentaaza-6,9-methanonaphtho[1,8-ab]heptalene-2-yl)-6-methylpyridin-2-amine], the IC50 in assay [1] came to 1.26 nM; in assay [2] (read-out: KRas HTRF IC50), 225 nM.

Turning to `Cc1c(F)c(N)c(F)c(-c2nc3c4c(nc(OCC5(CN6CCOCC6)CC5)nc4c2F)N2C[C@H]4CC[C@H](N4)[C@H]2[C@H](C)O3)c1C(F)(F)F` [Compound 224, 2,6-Difluoro-3-((5S,5aS,6S,9R)-1-fluoro-5-methyl-12-((1-(morpholinomethyl)cyclopropyl)methoxy)-5a,6,7,8,9,10-hexahydro-5H-4-oxa-3,10a,11,13,14-pentaaza-6,9-methanonaphtho[1,8-ab]heptalen-2-yl)-5-methyl-4-(trifluoromethyl)aniline], the IC50 was 0.18 nM in assay [1] and 12 nM in assay [2] (read-out: KRas HTRF IC50).

On to `Cc1cc(N)c(F)c(-c2nc3c4c(ncnc4c2Cl)N2C[C@H]4CC[C@H](N4)[C@H]2[C@H](C)O3)c1C(F)(F)F` (atropisomer, axis not shown) [Compound 95, 3-((5S,5aS,6S,9R)-1-chloro-5-methyl-5a,6,7,8,9,10-hexahydro-5H-4-oxa-3,10a,11,13,14-pentaaza-6,9-methanonaphtho[1,8-ab]heptalen-2-yl)-2-fluoro-5-methyl-4-(trifluoromethyl)aniline], for which, in assay [1], the IC50 is 26.6 nM.

As for `Cc1cc(N)c(Cl)c(-c2nc3c4c(nc(OC[C@@]56CCCN5C[C@H](F)C6)nc4c2F)N2C[C@H]4CC[C@H](N4)[C@H]2[C@H](C)O3)c1C(F)(F)F` [Compound 199, 2-Chloro-3-((5S,5aS,6S,9R)-1-fluoro-12-(((2R,7aS)-2-fluorotetrahydro-1H-pyrrolizin-7a(5H)-yl)methoxy)-5-methyl-5a,6,7,8,9,10-hexahydro-5H-4-oxa-3,10a,11,13,14-pentaaza-6,9-methanonaphtho[1,8-ab]heptalen-2-yl)-5-methyl-4-(trifluoromethyl)aniline], the IC50 in assay [1] came out at 0.17 nM.

Regarding `Cc1c(F)c(N)cc(-c2nc3c4c(nc(OC[C@@]56CCCN5C[C@H](F)C6)nc4c2F)N2C[C@H]4CC[C@H](N4)[C@H]2[C@@H](C(F)(F)F)O3)c1C(F)(F)F` [Compound 246, 2-Fluoro-5-((5S,5aS,6S,9R)-1-fluoro-12-(((2R,7aS)-2-fluorotetrahydro-1H-pyrrolizin-7a(5H)-yl)methoxy)-5-(trifluoromethyl)-5a,6,7,8,9,10-hexahydro-5H-oxa-3,10a,11,13,14-pentaaza-6,9-methanonaphtho[1,8-ab]heptalene-2-yl)-3-methyl-4-(trifluoromethyl)aniline], the IC50 in assay [2] (read-out: KRas HTRF IC50) was 1200 nM.

As to `C[C@@H]1Oc2nc(-c3cc(N)cc(F)c3C(F)(F)F)c(F)c3nc(OC[C@H]4CC[C@@H]5COC(C)(C)CN45)nc(c23)N2C[C@H]3CC[C@H](N3)[C@@H]12` (relative stereo) [Compound 125, 3-((5S,5aS,6S,9R)-12-((3,3-dimethylhexahydro-1H-pyrrolo[2,1-c][1,4]oxazin-6-yl)methoxy)-1-fluoro-5-methyl-5a,6,7,8,9,10-hexahydro-5H-4-oxa-3,10a,11,13,14-pentaaza-6,9-methanonaphtho[1,8-ab]heptalen-2-yl)-5-fluoro-4-(trifluoromethyl)aniline], the IC50 in assay [1] is 0.23 nM.

With `Cc1c(Cl)c(N)cc(-c2nc3c4c(nc(OC[C@@]56CCCN5C[C@H](F)C6)nc4c2F)N2C[C@H]4CC[C@H](N4)[C@H]2[C@H](C)O3)c1C(F)(F)F` (single isomer, unassigned) [Compound 200], the IC50 in assay [1] was 0.1 nM.

In the case of `Cc1nc(N)cc(-c2nc3c4c(nc(OCC5(CN6CC7COCC(C6)C7(F)F)CC5)nc4c2F)N2C[C@H]4CC[C@H](N4)[C@H]2[C@H](C)O3)c1C(F)(F)F` [Compound 266, 4-((5S,5aS,6S,9R)-12-((1-((9,9-difluoro-3-oxa-7-azabicyclo[3.3.1]nonon-7-yl)methyl)cyclopropyl)methoxy)-1-fluoro-5-methyl-5a,6,7,8,9,10-hexahydro-5H-4-oxa-3,10a,11,13,14-pentaaza-6,9-methanonaphtho[1,8-ab]heptalene-2-yl)-6-methyl-5-(trifluoromethyl)pyridin-2-amine], in assay [2] (read-out: KRas HTRF IC50), the IC50 stood at 1100 nM.

Regarding `Cc1c(F)c(N)cc(-c2nc3c4c(nc(OC[C@H]5CC[C@@H]6C(=O)N(C)CCN56)nc4c2F)N2C[C@H]4CC[C@H](N4)[C@H]2[C@H](C)O3)c1C(F)(F)F` (relative stereo) [Compound 123, 6-((((5S,5aS,6S,9R)-2-(5-Amino-4-fluoro-3-methyl-2-(trifluoromethyl)phenyl)-1-fluoro-5-methyl-5a,6,7,8,9,10-hexahydro-5H-4-oxa-3,10a,11,13,14-pentaaza-6,9-methanonaphtho[1,8-ab]heptalen-12-yl)oxy)methyl)-2-methylhexahydropyrrolo[1,2-a]pyrazin-1(2H)-one], in assay [1], the IC50 turned out to be 0.7 nM.
